Literature values, collected in US20090232888A1, “SUSTAINED DELIVERY OF ANTIBIOTICS” (ORIENT PHARMA, priority 2008, published 2009).

Tests used:
[1] = solution, 4° C., shelf-life based on 90% residual potency

## CN[C@H](CC(C)C)C(=O)N[C@H]1C(=O)N[C@@H](CC(N)=O)C(=O)N[C@H]2C(=O)N[C@H]3C(=O)N[C@H](C(=O)N[C@H](C(=O)O)c4cc(O)cc(O)c4-c4cc3ccc4O)[C@H](O)c3ccc(c(Cl)c3)Oc3cc2cc(c3O[C@@H]2O[C@H](CO)[C@@H](O)[C@H](O)[C@H]2O[C@H]2C[C@](C)(N)[C@H](O)[C@H](C)O2)Oc2ccc(cc2Cl)[C@H]1O [vancomycin]
[1]
  time vancomycin solutions were stable (shelf-life of 90% residual potency): at least 58 days
other
  oral bioavailability: negligible
